Here are results for one compound from PMC9161444, “In-Membrane Nanostructuring of Cationic Amphiphiles Affects Their Antimicrobial Efficacy and Cytotoxicity: A Comparison Study between a De Novo Antimicrobial Lipopeptide and Traditional Biocides” (Langmuir, 2022).

A short description of the data set: Surface tension measurements (CAC, area per molecule). Format: physicochemical. Particulars: Krüss K11, 25 °C, PBS or saline (171.5 mM NaCl, pH 7.2) of equivalent ionic strength, saline for C14KKGGII, points repeated at least three times. Here is the method: Surface tensions of salt solutions of the amphiphiles were measured using a Krüss Force Tensiometer K11 at 25 °C. Saline (171.5 mM NaCl, final pH 7.2) instead of phosphate-buffered saline (PBS) was used to dissolve the samples of peptide C14KKGGII in order to avoid gelation above 0.1 mM. The ionic strength of the saline solution was the same as that of the PBS (consisting of 137 mM NaCl, 2.7 mM KCl, 8.1 mM Na2HPO4, and 1.9 mM KH2PO4, pH 7.2) solution employed in antimicrobial assays. Concentration effects on the surface tension were investigated for each amphiphile, and its CAC in the buffer environment was determined. All the data points were repeated at least three times. Quadratic functions were used to fit the surface tension at low concentrations below their CACs, while linear functions were used to fit the high concentration regions above the CACs for all three amphiphiles: [drawing 1] 1 [drawing 2] 2 where γ represents the surface tension in milli-newtons per meter, C is the amphiphile concentration in millimolar, and a1, b1, b2, c1, and c2 are the best fitted parameters. Intersections of the two lines give the estimated CACs of the amphiphiles. The Gibbs equation for solutions with a constant and excess salt is [drawing 3] […] The areas per molecule for the three amphiphiles at their CACs were calculated using [drawing 6] […]

As to `CCCCCCCCCCCC[N+](C)(C)C.[Br-]` [C12TAB, dodecyltrimethylammonium bromide], the “CAC (critical aggregation concentration)” value is ~1000 ± 100 µM.
